Reference: ChEMBL document CHEMBL2040771, “Discovery of a potent inhibitor of anaplastic lymphoma kinase with in vivo antitumor activity” (ACS Med Chem Lett, 2010)
Calls of active or inactive are those of the source. The calls are words filed in the database; no cut-off is given here.

Experiments:
Mus musculus [1] = assay: Toxicity in SCID mouse xenografted with human SUP-M2 cells at 10 mg/kg, po BID for 12 days; assay type: organism-based; set-up: dose 10 mg/kg, route oral; conditions: in vivo, 288 h
[2] = target: NUAK family SNF1-like kinase 1 (Homo sapiens) (UniProt O60285); assay: Inhibition of ARK5 at 0.1 uM
[3] = Volume of distribution in beagle dog at 1 mg/kg, iv; assay type: ADME, organism-based, Canis lupus familiaris; set-up: dose 1 mg/kg, route intravenous; conditions: in vivo
[4] = target: Vascular endothelial growth factor receptor 3 (Homo sapiens) (UniProt P35916); assay: Inhibition of FLT4 at 0.1 uM
[5] = target: Serine/threonine-protein kinase ULK3 (Homo sapiens) (UniProt Q6PHR2); assay: Inhibition of ULK3 at 1 uM
[6] = target: Serine/threonine-protein kinase 33 (Homo sapiens) (UniProt Q9BYT3); assay: Inhibition of STK33 at 0.1 uM
[7] = target: Tyrosine-protein kinase Srms (Homo sapiens) (UniProt Q9H3Y6); assay: Inhibition of SRMS at 1 uM
[8] = target: Cyclin-G-associated kinase (Homo sapiens) (UniProt O14976); assay: Inhibition of GAK at 1 uM
[9] = target: Mitogen-activated protein kinase 9 (Homo sapiens) (UniProt P45984); assay: Inhibition of JNK2 at 0.1 uM
[10] = Oral bioavailability in beagle dog at 10 mg/kg; assay type: ADME, organism-based, Canis lupus familiaris; conditions: in vivo
[11] = Drug uptake in tumor lysates in SCID mouse xenografted with ALK-positive human SUP-M2 cells at 30 mg/kg, po bid for 12 days; assay type: ADME, organism-based, Neoplasm; set-up: dose 30 mg/kg, route oral; conditions: read-out: Drug uptake
[12] = target: Focal adhesion kinase 1 (Homo sapiens) (UniProt Q05397); assay: Inhibition of FAK at 1 uM
[13] = target: Proto-oncogene tyrosine-protein kinase ROS (Homo sapiens) (UniProt P08922); assay: Inhibition of ROS at 1 uM
Canis familiaris = assay: Clearance with respect to hepatic blood flow in beagle dog at 1 mg/kg, iv; assay type: ADME, organism-based, Canis lupus familiaris, Liver; set-up: dose 1 mg/kg, route intravenous; conditions: in vivo
[14] = target: Serine/threonine-protein kinase PAK 3 (Homo sapiens) (UniProt O75914); assay: Inhibition of PAK3 at 0.1 uM
[15] = Plasma clearance in Sprague-Dawley rat at 1 mg/kg, iv by LC/MS/MS analysis; assay type: ADME, organism-based; set-up: dose 1 mg/kg, route intravenous
[16] = Half life in Sprague-Dawley rat at 5 mg/kg, po; assay type: ADME, organism-based; set-up: dose 5 mg/kg, route oral; conditions: in vivo
[17] = target: Serine/threonine-protein kinase PAK 3 (Homo sapiens) (UniProt O75914); assay: Inhibition of PAK3 at 1 uM
[18] = target: Serine/threonine-protein kinase PLK4 (Homo sapiens) (UniProt O00444); assay: Inhibition of PLK4 at 1 uM
[19] = Half life in SCID mouse at 10 mg/kg, po; assay type: ADME, organism-based; set-up: dose 10 mg/kg, route oral; conditions: in vivo
[20] = target: Protein-tyrosine kinase 6 (Homo sapiens) (UniProt Q13882); assay: Inhibition of BRK at 1 uM
[21] = target: Macrophage colony-stimulating factor 1 receptor (Homo sapiens) (UniProt P07333); assay: Inhibition of CSF1R at 0.1 uM
[22] = test system: Epidermal growth factor receptor (Homo sapiens), P04626+P00533+Q15303+P21860 [UNDEFINED MUTATION]; assay: Inhibition of EGFR L747 to E749 deletion, A750P mutant at 1 uM; assay type: protein assay
[23] = Half life in beagle dog at 1 mg/kg, iv; assay type: ADME, organism-based, Canis lupus familiaris; set-up: dose 1 mg/kg, route intravenous; conditions: in vivo
Rattus norvegicus = assay: Clearance with respect to hepatic blood flow in Sprague-Dawley rat at 1 mg/kg, iv; assay type: ADME, organism-based, Liver; set-up: dose 1 mg/kg, route intravenous; conditions: in vivo
[24] = target: Dual specificity mitogen-activated protein kinase kinase 1 (Homo sapiens) (UniProt Q02750); assay: Inhibition of MEK1 at 0.1 uM
[25] = Plasma clearance in beagle dog at 1 mg/kg, iv by LC/MS/MS analysis; assay type: ADME, organism-based, Canis lupus familiaris; set-up: dose 1 mg/kg, route intravenous
[26] = target: Leukocyte tyrosine kinase receptor (Homo sapiens) (UniProt P29376); assay: Inhibition of LTK at 1 uM
[27] = Drug uptake in tumor lysates in SCID mouse xenografted with ALK-positive human SUP-M2 cells at 10 mg/kg, po bid for 12 days; assay type: ADME, organism-based, Neoplasm; set-up: dose 10 mg/kg, route oral; conditions: read-out: Drug uptake
[28] = test system: Receptor-type tyrosine-protein kinase FLT3 (Homo sapiens), P36888 [N841I]; assay: Inhibition of FLT3 N841I mutant at 1 uM
[29] = target: Macrophage colony-stimulating factor 1 receptor (Homo sapiens) (UniProt P07333); assay: Inhibition of CSF1R at 1 uM
[30] = Plasma concentration in SCID mouse xenografted with ALK-positive human SUP-M2 cells at 10 mg/kg, po bid for 12 days; assay type: ADME, organism-based; set-up: dose 10 mg/kg, route oral
SUP-M2 = assay: Antitumor activity against ALK-positive human SUP-M2 cells xenografted in SCID mouse at 10 mg/kg, po bid after 12 days; assay type: functional, organism-based; set-up: dose 10 mg/kg
[31] = Volume of distribution in SCID mouse at 1 mg/kg, iv; assay type: ADME, organism-based; set-up: dose 1 mg/kg, route intravenous; conditions: in vivo
Mus musculus [32] = assay: Clearance with respect to hepatic blood flow in SCID mouse at 1 mg/kg, iv; assay type: ADME, organism-based, Liver; set-up: dose 1 mg/kg, route intravenous; conditions: in vivo
[33] = target: Vascular endothelial growth factor receptor 3 (Homo sapiens) (UniProt P35916); assay: Inhibition of FLT4 at 1 uM
Mus musculus [34] = assay: Toxicity in SCID mouse xenografted with human SUP-M2 cells at 30 mg/kg, po BID for 12 days; assay type: organism-based; set-up: dose 30 mg/kg, route oral; conditions: in vivo, 288 h
[35] = AUC in Sprague-Dawley rat at 5 mg/kg, po; assay type: ADME, organism-based; set-up: dose 5 mg/kg, route oral; conditions: plasma
[36] = Half life in beagle dog at 10 mg/kg, po; assay type: ADME, organism-based, Canis lupus familiaris; set-up: dose 10 mg/kg, route oral; conditions: in vivo
[37] = target: Mitogen-activated protein kinase 8 (Homo sapiens) (UniProt P45983); assay: Inhibition of JNK1 at 0.1 uM
[38] = target: T1, ALK tyrosine kinase receptor (Homo sapiens, UniProt Q9UM73); conditions: 0.1 uM
Target sequence in this assay (Q9UM73 19-1620 limits assumed): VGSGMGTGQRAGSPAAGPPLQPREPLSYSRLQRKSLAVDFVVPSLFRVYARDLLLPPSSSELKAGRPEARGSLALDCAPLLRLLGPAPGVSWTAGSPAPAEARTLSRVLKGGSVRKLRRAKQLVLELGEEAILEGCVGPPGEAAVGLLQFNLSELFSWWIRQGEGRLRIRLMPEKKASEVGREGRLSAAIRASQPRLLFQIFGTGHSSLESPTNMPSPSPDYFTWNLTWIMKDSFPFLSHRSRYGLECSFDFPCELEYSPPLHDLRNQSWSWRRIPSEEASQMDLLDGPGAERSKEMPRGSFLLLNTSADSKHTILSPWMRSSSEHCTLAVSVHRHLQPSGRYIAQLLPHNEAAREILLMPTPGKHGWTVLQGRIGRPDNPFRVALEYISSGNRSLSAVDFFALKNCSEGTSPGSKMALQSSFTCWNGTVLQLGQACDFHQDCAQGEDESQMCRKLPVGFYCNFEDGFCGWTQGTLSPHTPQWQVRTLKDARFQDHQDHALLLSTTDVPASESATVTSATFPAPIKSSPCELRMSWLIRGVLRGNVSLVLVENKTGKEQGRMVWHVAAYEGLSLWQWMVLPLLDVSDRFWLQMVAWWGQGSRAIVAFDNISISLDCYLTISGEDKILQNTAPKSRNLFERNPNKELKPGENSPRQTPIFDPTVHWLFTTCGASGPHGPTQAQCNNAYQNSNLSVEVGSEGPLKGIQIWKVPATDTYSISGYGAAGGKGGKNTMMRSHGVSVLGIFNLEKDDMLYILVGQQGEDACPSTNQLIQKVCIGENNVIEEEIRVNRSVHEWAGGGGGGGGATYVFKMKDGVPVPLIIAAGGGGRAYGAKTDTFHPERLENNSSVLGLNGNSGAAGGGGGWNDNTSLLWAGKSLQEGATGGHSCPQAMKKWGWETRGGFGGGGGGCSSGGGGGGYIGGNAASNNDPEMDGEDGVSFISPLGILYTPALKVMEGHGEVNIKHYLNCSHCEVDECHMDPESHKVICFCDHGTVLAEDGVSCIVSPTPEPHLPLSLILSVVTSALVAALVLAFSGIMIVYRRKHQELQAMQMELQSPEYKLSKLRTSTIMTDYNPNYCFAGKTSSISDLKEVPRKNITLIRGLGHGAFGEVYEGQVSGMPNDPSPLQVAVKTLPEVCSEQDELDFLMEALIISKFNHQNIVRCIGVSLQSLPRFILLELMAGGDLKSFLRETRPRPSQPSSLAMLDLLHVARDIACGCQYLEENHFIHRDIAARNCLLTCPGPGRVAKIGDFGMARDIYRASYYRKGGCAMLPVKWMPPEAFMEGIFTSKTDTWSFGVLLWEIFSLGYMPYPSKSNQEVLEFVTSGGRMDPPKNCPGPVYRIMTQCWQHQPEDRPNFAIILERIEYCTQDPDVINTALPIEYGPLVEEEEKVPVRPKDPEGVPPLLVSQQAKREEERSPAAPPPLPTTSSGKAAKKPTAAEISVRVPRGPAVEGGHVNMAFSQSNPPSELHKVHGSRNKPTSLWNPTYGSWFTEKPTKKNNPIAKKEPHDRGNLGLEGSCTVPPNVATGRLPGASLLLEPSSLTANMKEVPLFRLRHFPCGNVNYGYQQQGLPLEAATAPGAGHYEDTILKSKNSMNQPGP
Description: Inhibition of ALK at 0.1 uM

[39] = target: Mitogen-activated protein kinase kinase kinase 5 (Homo sapiens) (UniProt Q99683); assay: Inhibition of ASK1 at 1 uM
[40] = target: Dual specificity mitogen-activated protein kinase kinase 1 (Homo sapiens) (UniProt Q02750); assay: Inhibition of MEK1 at 1 uM
[41] = target: T1, ALK tyrosine kinase receptor; assay: Inhibition of ALK
Mus musculus [42] = assay: Antitumor activity in ALK-positive human SUP-M2 cells xenografted in SCID mouse assessed as inhibition of NPM-ALK autophosphorylation in tumor lysate at 30 mg/kg, po administered as single dose measured after 12 hrs; assay type: functional; conditions: SUP-M2, Neoplasm, read-out: TGI
[43] = Ratio of drug level in tumor to plasma in SCID mouse; assay type: ADME; conditions: tumor and plasma
[44] = test system: Epidermal growth factor receptor (Homo sapiens), P00533 [L858R]; assay: Inhibition of EGFR L858R mutant at 0.1 uM; assay type: protein assay
[45] = Antitumor activity against ALK-positive human SUP-M2 cells xenografted in SCID mouse assessed as partial tumor regression at 30 mg/kg, po bid after 12 days; assay type: functional
[46] = target: T1, ALK tyrosine kinase receptor; assay: Inhibition of NPM-ALK autophosphorylation in human KARPAS299 cells in presence of mouse plasma; assay type: cell-based; conditions: karpas-299
Target sequence in this assay (Q9UM73 19-1620 limits assumed): as above

[47] = target: Epidermal growth factor receptor (Homo sapiens) (UniProt P00533); assay: Inhibition of EGFR at 1 uM
[48] = target: Platelet-derived growth factor receptor beta (Homo sapiens) (UniProt P09619); assay: Inhibition of PDGFRB at 1 uM

Sequence of Vascular endothelial growth factor receptor 3 (Homo sapiens) (P35916 whole entry): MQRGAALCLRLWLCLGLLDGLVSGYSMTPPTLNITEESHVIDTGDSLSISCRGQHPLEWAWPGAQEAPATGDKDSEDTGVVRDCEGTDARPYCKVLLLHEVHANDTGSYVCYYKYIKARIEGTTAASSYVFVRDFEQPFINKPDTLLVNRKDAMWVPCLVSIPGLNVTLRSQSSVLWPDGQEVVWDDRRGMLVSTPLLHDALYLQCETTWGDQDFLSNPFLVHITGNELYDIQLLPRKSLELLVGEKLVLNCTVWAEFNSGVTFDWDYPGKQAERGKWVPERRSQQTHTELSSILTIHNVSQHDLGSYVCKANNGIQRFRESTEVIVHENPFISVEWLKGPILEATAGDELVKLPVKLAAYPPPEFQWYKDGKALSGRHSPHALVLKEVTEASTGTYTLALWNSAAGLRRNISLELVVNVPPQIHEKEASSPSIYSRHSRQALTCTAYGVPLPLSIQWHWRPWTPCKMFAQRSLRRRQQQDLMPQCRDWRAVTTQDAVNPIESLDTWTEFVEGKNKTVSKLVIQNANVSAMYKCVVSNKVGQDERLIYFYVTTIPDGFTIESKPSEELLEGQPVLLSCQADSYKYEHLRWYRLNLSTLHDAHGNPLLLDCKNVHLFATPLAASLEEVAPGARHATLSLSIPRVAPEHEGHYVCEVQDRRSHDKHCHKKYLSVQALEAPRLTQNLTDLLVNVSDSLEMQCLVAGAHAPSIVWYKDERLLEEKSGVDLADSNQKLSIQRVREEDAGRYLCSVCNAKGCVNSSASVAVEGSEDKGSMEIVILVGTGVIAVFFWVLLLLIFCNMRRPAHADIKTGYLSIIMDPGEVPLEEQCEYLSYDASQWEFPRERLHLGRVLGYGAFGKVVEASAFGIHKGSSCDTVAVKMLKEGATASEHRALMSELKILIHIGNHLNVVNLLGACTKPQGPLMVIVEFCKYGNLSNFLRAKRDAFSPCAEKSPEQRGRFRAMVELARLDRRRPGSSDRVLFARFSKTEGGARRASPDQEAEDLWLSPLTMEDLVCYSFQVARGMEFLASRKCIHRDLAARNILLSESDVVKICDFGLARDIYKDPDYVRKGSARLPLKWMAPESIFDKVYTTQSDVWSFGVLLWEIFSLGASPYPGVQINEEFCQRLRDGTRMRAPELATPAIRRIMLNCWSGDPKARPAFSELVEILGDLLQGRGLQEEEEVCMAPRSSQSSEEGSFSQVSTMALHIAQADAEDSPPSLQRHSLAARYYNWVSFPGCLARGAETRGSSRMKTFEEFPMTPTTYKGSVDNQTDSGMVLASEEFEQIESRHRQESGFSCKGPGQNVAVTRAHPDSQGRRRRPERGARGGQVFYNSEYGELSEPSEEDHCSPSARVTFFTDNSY
Sequence of Dual specificity mitogen-activated protein kinase kinase 1 (Homo sapiens) (Q02750 whole entry): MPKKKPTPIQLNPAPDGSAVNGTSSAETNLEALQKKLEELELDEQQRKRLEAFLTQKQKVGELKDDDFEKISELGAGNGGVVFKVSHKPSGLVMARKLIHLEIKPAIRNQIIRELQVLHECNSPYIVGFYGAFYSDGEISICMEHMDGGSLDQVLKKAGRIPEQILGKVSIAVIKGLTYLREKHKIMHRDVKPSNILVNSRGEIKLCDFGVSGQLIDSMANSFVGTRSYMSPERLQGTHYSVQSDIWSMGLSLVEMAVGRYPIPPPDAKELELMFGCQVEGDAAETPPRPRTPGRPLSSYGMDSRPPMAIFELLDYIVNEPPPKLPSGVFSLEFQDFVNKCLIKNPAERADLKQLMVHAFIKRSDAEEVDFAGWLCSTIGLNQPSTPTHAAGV
Sequence of Macrophage colony-stimulating factor 1 receptor (Homo sapiens) (P07333 whole entry): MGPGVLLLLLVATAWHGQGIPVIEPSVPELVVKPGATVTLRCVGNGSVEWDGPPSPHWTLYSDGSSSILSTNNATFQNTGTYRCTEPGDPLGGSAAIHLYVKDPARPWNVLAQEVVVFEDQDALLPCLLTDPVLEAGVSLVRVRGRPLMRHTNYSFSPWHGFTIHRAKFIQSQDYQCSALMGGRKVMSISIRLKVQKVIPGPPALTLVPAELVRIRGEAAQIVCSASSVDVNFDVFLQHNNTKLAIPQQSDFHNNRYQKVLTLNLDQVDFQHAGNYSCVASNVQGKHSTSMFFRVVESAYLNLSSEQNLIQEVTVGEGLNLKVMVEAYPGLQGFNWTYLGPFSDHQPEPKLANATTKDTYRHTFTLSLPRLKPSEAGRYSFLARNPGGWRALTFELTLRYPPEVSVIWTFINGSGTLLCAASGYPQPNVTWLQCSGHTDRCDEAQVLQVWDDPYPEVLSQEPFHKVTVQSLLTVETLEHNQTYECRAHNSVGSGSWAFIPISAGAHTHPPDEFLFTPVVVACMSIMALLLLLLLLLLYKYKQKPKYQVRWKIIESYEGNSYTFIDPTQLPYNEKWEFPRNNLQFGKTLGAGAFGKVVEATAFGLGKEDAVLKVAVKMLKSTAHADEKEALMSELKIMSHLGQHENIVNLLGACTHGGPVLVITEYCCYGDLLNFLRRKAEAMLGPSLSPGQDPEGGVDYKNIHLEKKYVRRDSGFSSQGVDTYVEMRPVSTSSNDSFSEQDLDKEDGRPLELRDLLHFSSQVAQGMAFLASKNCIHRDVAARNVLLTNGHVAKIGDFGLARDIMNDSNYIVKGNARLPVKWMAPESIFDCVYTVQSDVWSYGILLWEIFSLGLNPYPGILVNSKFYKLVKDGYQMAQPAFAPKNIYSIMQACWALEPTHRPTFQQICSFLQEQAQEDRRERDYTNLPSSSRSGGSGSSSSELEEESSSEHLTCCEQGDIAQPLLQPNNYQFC
Sequence of Serine/threonine-protein kinase PAK 3 (Homo sapiens) (O75914 whole entry, looked up): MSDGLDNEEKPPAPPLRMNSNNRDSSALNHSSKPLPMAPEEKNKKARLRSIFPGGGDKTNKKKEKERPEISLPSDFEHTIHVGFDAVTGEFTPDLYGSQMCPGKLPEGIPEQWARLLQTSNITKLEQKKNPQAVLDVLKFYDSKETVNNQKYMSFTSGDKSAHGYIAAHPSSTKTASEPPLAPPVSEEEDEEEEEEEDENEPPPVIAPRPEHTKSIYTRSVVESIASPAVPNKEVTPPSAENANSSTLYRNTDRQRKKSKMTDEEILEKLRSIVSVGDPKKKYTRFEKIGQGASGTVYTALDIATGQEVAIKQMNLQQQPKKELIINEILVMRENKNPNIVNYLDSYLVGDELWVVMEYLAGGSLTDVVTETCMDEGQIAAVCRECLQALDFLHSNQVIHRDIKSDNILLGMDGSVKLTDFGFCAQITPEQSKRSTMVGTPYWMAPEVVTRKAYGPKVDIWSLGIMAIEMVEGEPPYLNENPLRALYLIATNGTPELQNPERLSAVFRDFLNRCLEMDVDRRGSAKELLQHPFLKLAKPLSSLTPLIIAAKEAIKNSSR

inhibition [2]: < 50% | Vd [3]: 2.1 L/kg | inhibition [4]: 72% | inhibition [5]: 94% | inhibition [6]: 84% | inhibition [7]: 94% | inhibition [8]: 91% | inhibition [9]: < 50% | bioavailability [10]: 31% | concentration at 288 h [11]: 405 ng/g | inhibition [12]: 99% | inhibition [13]: 93% | CL (Canis familiaris): 58% | inhibition [14]: < 50% | clearance [15]: 13 mL/min/kg | half-life [16]: 2.2 h | inhibition [17]: 90% | inhibition [18]: 95% | half-life [19]: 2.4 h | inhibition [20]: 100% | inhibition [21]: < 50% | inhibition [22]: 94% | half-life [23]: 1.1 h | CL (Rattus norvegicus): 20% | inhibition [24]: < 50% | clearance [25]: 22 mL/min/kg | inhibition [26]: 98% | concentration at 288 h [27]: 3560 ng/g | inhibition [28]: 95% | inhibition [29]: 91% | concentration at 288 h [30]: 337 ng/mL | Vd [31]: 0.9 L/kg | CL (Mus musculus [32]): 41% | inhibition [33]: 100% | AUC [35]: 4090 ng·h/mL | half-life [36]: 1.6 h | inhibition [37]: 81% | inhibition [38]: 89% | inhibition [39]: 99% | inhibition [40]: 91% | IC50 [41]: 0.014 µM | Kp [43]: 1.3 | inhibition [44]: < 50% | IC50 [46]: 0.225 µM | inhibition [47]: 96% | inhibition [48]: 98%
SMILES: CCN1C(=O)CCCc2c1ccc(Nc1ncc(Cl)c(N[C@H]3[C@@H](C(N)=O)[C@@H]4C=C[C@H]3C4)n1)c2OC
Activity (Mus musculus [1]): Non-toxic | Activity (SUP-M2): inactive | Activity (Mus musculus [34]): Non-toxic | inhibition in vivo at 30 mg/kg (Mus musculus [42]): > 80% | Activity [45]: 100%
